{"source": "patent US9409978B2", "about": "“Modulation of midbody derivatives” (University of Massachusetts, priority 2011, dated 2016)", "key": {"HeLa cells": {"test_system": "HeLa cells", "assay": "Lysosome inhibition, MBd quantification in HeLa cells", "format": "cell-based", "conditions": "lysosomal inhibition 22 hours", "from_the_text": "(§1) Each dividing cell was considered one cell."}, "MCF-7 cancer cells": {"test_system": "MCF-7 cancer cells", "assay": "Lysosome inhibition, MBd quantification in MCF-7 cells", "format": "cell-based", "conditions": "lysosomal inhibition 22 hours", "from_the_text": "as §1"}, "hESCs (H1, H9)": {"test_system": "hESCs (H1, H9)", "assay": "Lysosome inhibition, MBd quantification in hESCs", "conditions": "chloroquine treatment", "excerpt": "Quantification was based on the markers that: 1) labeled both mitotic MBs and MBds (MKLP1, mgcRACGAP, or Cep55); 2) labeled MBs differently than MBds (α-tubulin or Aurora B); 3) defined cell boundaries (α-tubulin or ZO-1). Because Cep55, MKLP1, and mgcRACGAP also label centrioles and spindle midzones, cells were co-stained with centrosome antibody (e.g. 5051), and a size threshold for MB/MBds (1 μm) was introduced to exclude non-MBd structures. Structures with MB-specific or non-MB/MBd labeling were excluded from MBd counts. Cell counts: For hESCs, 5-11 colonies were imaged from triplicates in each experiment. For other cell types, random fields were imaged until n>500 cells. Each dividing cell was considered one cell.\nCells at 70% confluency were incubated with chloroquine (200 μM/PBS; Sigma), E64d+ pepstatin A (E64d/PepA) (10 μg ml^−1/DMSO each; Sigma) (Klionsky et al., 2008, Autophagy, 4:151-175; Komatsu et al., 2007, Cell, 131:1149-63) or solvents alone (controls) for 22 hours before fixation. Lysosome inhibition was confirmed and visualized after 12-hour DQ-Red BSA (10 μg ml^−1; Invitrogen) incubation."}, "hRPE-1 cells": {"test_system": "hRPE-1 cells", "assay": "Lysosome inhibition, MBd quantification in hRPE-1 cells", "format": "cell-based", "conditions": "lysosomal inhibition 22 hours", "from_the_text": "as §1"}}, "note": "“Also recorded” adds a separate entry of the source.", "data": [{"smiles": "CCN(CC)CCCC(C)Nc1ccnc2cc(Cl)ccc12", "note": "(stereo not shown) [chloroquine]", "values": [{"measurement": "percent of MBd+ cells (MBd levels)", "setting": "HeLa cells", "value": "modest increase; also recorded: increase the percent of MBd+ cells"}, {"measurement": "presence of MBds in lysosomes", "setting": "HeLa cells", "value": "presence of MBds in lysosomes"}, {"measurement": "percent of MBd+ cells (MBd levels)", "setting": "MCF-7 cancer cells", "value": "largely unaffected; also recorded: no detectable effect"}, {"measurement": "percent of MBds in lysosomes", "setting": "MCF-7 cancer cells", "value": "largely unaffected"}, {"measurement": "effect of treatment on the cells (differentiation, cell death)", "setting": "hESCs (H1, H9)", "value": "caused differentiation and cell death"}, {"measurement": "percent of MBds found within lysosomes", "setting": "hRPE-1 cells; LAMP2 lysosome marker", "value": "elevated; also recorded: presence of MBds in lysosomes"}, {"measurement": "percent of MBd+ cells (MBd levels)", "setting": "hRPE-1 cells; chloroquine 200 μM or E64d/PepA 10 μg/ml each", "value": "elevated; also recorded: increase the percent of MBd+ cells"}]}]}
